Data set [1] concerns WI38 cells. The data set is described as follows: Protection from IFNγ and anti-Fas antibody-induced apoptosis (XTT). Type of data set: cell-based, human. Particulars: 100% when Fas antibody was not treated; for viability ratio: WI38 cells. The method, then: WI38 cells (human embryonal lung fibroblast) were grown in a medium containing DMEM-10% FBS within 10cm diameter dishes until reaching at confluency. The cells were seeded into a 24-well plate at day 1 and incubated overnight while the volume of medium was maintained to 400µℓ. […] At day 3, each 100 µℓ of test compound was added to the cells after diluting the 10mM stock compound in DMSO to final concentrations of 50, 10, 2, and 0.4 µ M, respectively. The cells were incubated for 2 hrs in order for allowing the compound to enter into the cells and then treated with 40ng/well of anti-Fas antibody(apoptosis was induced 2 hrs after antibody was treated and the incubation was continued overnight). The control was not treated with Fas antibody. […] After coloring, 100-200µℓ of the supernatant was transferred to a 96-well plate and the absorbance at 490 nm was read with ELISA plate reader. For the blank, XTT solution was added to the well containing the medium only. Plotting was determined by comparing with the control group (100% when Fas antibody was not treated).
(Formazan colour is commonly taken as a measure of viable cells.)

The test system of data set [2] is Jurkat T cell. The data set is described as follows: MTT assay of cell death induced by Anti-FAS antibody CH11. Particulars: Jurkat T cell treated with Anti-FAS antibody CH11, MTT, read-out: ED50 FAS Induced cell death. Type of data set: cell-based.
Data set [3] concerns the target T1, caspase-1 (Homo sapiens, UniProt P29466).
T1 construct: made in house
T1 sequence (P29466 120-297 limits assumed): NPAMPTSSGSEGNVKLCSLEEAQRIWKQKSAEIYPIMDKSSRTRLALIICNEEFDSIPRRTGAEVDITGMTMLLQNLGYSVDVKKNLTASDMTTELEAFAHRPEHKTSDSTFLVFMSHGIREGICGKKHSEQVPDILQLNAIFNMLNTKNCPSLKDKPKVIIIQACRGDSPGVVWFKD
T1 sequence (P29466 317-404 limits assumed): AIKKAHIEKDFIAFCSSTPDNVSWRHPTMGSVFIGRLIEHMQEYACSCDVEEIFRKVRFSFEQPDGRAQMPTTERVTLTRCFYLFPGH
The data set is described as follows: Screening on caspases inhibiting activity (recombinant enzyme, fluorogenic AMC substrate). Type of data set: biochemical. The settings on record: Reversible Inhibitor. The method, then:
(§1) In the present experiment, recombinant caspases were purified from a transformed bacterium after human caspase genes were cloned into the expression vector pET, and then used in the experiment (Thornberry, N.A. et .al. Nature, 1992, 356, 768. Thombeny, N.A. Methods in Enzymology, 1994, 615.).
(§2) Enzymatic activity was measured by a known procedure (Walker N.P.C. et al., Cell 1994, 78, 343). Briefly, 10 ng of recombinant protein was mixed with 50 mM Tris(pH 7.0), 1mM DTT, 0.5 mM EDTA, 10% Glycerol buffer containing 1∼100 µM of enzyme substrate, Ac-YVAD-AMC or Ac-DEVD-AMC and then the changes by isolated AMC at 37°C were recorded. The inhibitory activity for caspases was calculated from the early enzyme reaction rate by measuring the changes with fluorescence excited at […] and emitted at 460 nm (Range; Ki<100nM).

In data set [4] the target is T2, caspase-3 (Homo sapiens, UniProt P42574).
T2 construct: made in house
T2 sequence (P42574 29-175 limits assumed): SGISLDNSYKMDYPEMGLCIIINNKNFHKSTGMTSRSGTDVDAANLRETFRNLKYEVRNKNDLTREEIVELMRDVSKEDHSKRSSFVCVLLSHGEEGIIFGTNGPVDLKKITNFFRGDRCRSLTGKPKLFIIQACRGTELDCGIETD
T2 sequence (P42574 176-277 limits assumed): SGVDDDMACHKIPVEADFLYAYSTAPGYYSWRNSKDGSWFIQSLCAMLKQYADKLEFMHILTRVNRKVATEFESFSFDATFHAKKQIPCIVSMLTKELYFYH
Described as above. The settings on record: Irreversible Inhibitors. Type of data set: biochemical. The method, then:
as §1, §2

Several values for one entry are separate records, joined by “and”; a condition that tells them apart may be missing. Equal entries are not always repeated. Where two headings read alike, the source gives them in different places.

Broadly, the Ki is a measure of affinity in units of concentration, obtained from inhibition or displacement.

For the compound `CC(C)[C@H](NC(=O)c1ccc2ccccc2c1)C1=NOC(Cc2ccccc2)(C(=O)N[C@@H](CC(=O)O)C(=O)COC(=O)c2c(Cl)cccc2Cl)C1` (stereo partly drawn) [Compound 28, (3S)-3-{3-{(1S)-1-(naphthalene-2-carbonylamino)-2-methyl-propyl]-5-phenylmethyl-4,5-dihydro-isoxazole-5-carbonylamino}-4-keto-5-(2,6-dichlorobenzoyloxy)-pentanoic acid], the viability at 0.4 µM in data set [1] (Homo sapiens, WI-38, WI38 cells, Conc. 0.4 µM, read-out: viability ratio) turned out to be 14.7%. Moreover, in data set [1] (Homo sapiens, WI-38, WI38 cells, Conc. 2 µM, read-out: viability ratio), the viability at 2 µM is 17.3%. The viability at 10 µM in data set [1] (Homo sapiens, WI-38, WI38 cells, Conc. 10 µM, read-out: viability ratio) was 82.4%. In addition, in data set [1] (Homo sapiens, WI-38, WI38 cells, Conc. 50 µM, read-out: viability ratio), the viability at 50 µM was 90%. For the same compound, the viability ratio in data set [1] (Conc. 50 µM, listed as Comp 28, 50 µM) turned out to be 90.39%.
For “(3S)-3-{3-[(1S)-1-(quinoline-2-yl-carbonylamino)-2-methyl-propyl]-5-phenox ymethyl-4,5-dihydro-isoxazole-5-carbonylamino}-4-keto-pentanoic acid [Compound 22mp]”, the EC50 in data set [2] is 1000 to 10000 nM. Further, the Ki in data set [3] amounted to 0.125 nM.
For `CC(C)[C@H](NC(=O)CCC(=O)O)C1=NOC(C)(C(=O)N[C@@H](CC(=O)O)C(=O)COc2ccc3ccccc3c2)C1` (single isomer, unassigned) [Compound 81], the EC50 in data set [2] (Homo sapiens) was in the range of 1000 to 10000 nM.
In the case of `CCCCCC1(C(=O)N[C@@H](CC(=O)O)C(=O)COC(=O)c2c(Cl)cccc2Cl)CC([C@@H](NC(=O)CCC(=O)O)C(C)C)=NO1` (stereo partly drawn) [Compound 90, (3S)-3-{3-[2-methyl-(1S)-1-(succinoylamino)-propyl]-5-n-pentyl-4,5-dihydro-isoxazole-5-carbonylamino}-4-keto-5-(2,6-dichlorobenzoyloxy)-pentanoic acid], the “Kobs/[I] for caspase-3” value in data set [4] stood at 80100 M⁻¹ s⁻¹.
With `CC(C)[C@H](NC(=O)c1cccc2ccccc12)C1=NOC(Cc2ccccc2)(C(=O)N[C@@H](CC(=O)O)C(=O)CN2CCCCC2)C1` (stereo partly drawn) [Compound 48, (3S)-3-{3-[2-methyl-(1S)-1-(1-naphtalenylcarbonylamino)-propyl]-5-phenylmethyl-4,5-dihydro-isoxazole-5-carbonylamino}-4-keto-5-(1-piperidinyl)-pentanoic acid], in data set [2] (Homo sapiens), the EC50 is 1000 to 10000 nM.
Take `CC(C)[C@H](NC(=O)[C@H](CCC(=O)O)NC(=O)[C@H](CC(=O)O)NC(=O)OCc1ccccc1)C(=O)N[C@@H](CC(=O)O)C(=O)CCl` [z-DEVD-cmk, reference compound]: the viability ratio was 15.13% in data set [1] (Conc. 0.4 µM); 16.27% in data set [1] (Conc. 2 µM); 27.38% in data set [1] (Conc. 10 µM); 47.3% and 47.32% in data set [1] (Conc. 50 µM, 50 µM).
As for `CC(C)[C@H](NC(=O)CCC(=O)O)C1=NOC(C)(C(=O)N[C@@H](CC(=O)O)C(=O)CN2CCCCC2)C1` (stereo partly drawn) [Compound 77, (3S)-3-{3-[2-methyl-(1S)-1-(succinoylamino)-propyl]-5-methyl-4,5-dihydro-isoxazole-5-carbonylamino}-4-keto-5-(N-piperidine)-pentanoic acid], the EC50 in data set [2] (Homo sapiens) fell in the range of 1000 to 10000 nM. Besides, the Ki in data set [3] was determined as 28900 nM.
Turning to `CC1(C(=O)N[C@@H](CC(=O)O)C(=O)COc2ccccc2)CC([C@H](CCC(=O)O)NC(=O)CCC(=O)O)=NO1` (mixture of isomers) [Compound 46, (3S)-3-{3-[(1S)-1-(succinoylamino)-3-carboxy-propyl]-5-methyl-4,5-dihydro-isoxazole-5-carbonylamino}-4-keto-5-phenoxy-pentanoic acid], the EC50 in data set [2] (Homo sapiens) fell in the range of 1000 to 10000 nM.
As for `CC(C)[C@H](NC(=O)c1ccc2ccccc2c1)C1=NOC(COc2ccccc2)(C(=O)N[C@@H](CC(=O)O)C(=O)COc2ccc3ccccc3c2)C1` (stereo partly drawn) [Compound 25mp, (3S)-3-{3-[(1S)-1-(naphthalene-2-carbonylamino)-2-methyl-propyl]-5-phenoxymethyl-4,5-dihydro-isoxazole-5-carbonylamino}-4-keto-5-(2-naphthyloxy)-pent anoic acid], in data set [2] (Homo sapiens), the EC50 is 1000 to 10000 nM. Moreover, in data set [3], the Ki was found to be 0.0721 nM.
`CC(C)[C@H](NC(=O)c1ccc2ccccc2c1)C1=NOC(C(=O)N[C@@H](CC(=O)O)C(=O)COc2ccccc2)C1` (stereo partly drawn) [Compound 30, (3S)-3-{3-[2-methyl-(1S)-1-(2-naphthalenecarbonylamino)-propyl]-4,5-dihydro-isoxazole-5-carbonylamino}-4-keto-5-phenoxy-pentanoic acid]: the EC50 in data set [2] (Homo sapiens) was 1000 to 10000 nM.
In the case of `CC(C)[C@H](NC(=O)c1cc2ccccc2[nH]1)C1=NOC(Cc2ccccc2)(C(=O)N[C@@H](CC(=O)O)C(=O)COC(=O)c2c(Cl)cccc2Cl)C1` (stereo partly drawn) [Compound 64, (3S)-3-{3-[2-methyl-(1S)-1-(indole-2-carbonylamino)-propyl]-5-phenylmethyl - 4,5-dihydro-isoxazole-5-carbonylamino}-4-keto-5-(2,6-dichlorobenzoyloxy)-pe ntanoic acid], in data set [2] (Homo sapiens), the EC50 was in the range of 1000 to 10000 nM.
With `CC(C)[C@H](NC(=O)c1ccc2ccccc2n1)C1=NOC(Cc2ccccc2)(C(=O)N[C@@H](CC(=O)O)C(=O)COc2ccccc2)C1` (stereo partly drawn) [Compound 43mp, (3S)-3-{3-[2-methyl-(1S)-1-(quinoline-2-yl-carbonylamino)-propyl]-5-phenylmethyl-4,5-dihydro-isoxazole-5-carbonylamino}-4-keto-5-phenoxy-pentanoic acid], the EC50 in data set [2] (Homo sapiens) is 1000 to 10000 nM. Moreover, the Ki in data set [3] worked out at 4 nM.
On to `CC(C)[C@H](NC(=O)c1ccc2ccccc2c1)C1=NOC(C(=O)N[C@@H](CC(=O)O)C(=O)COc2ccc3ccccc3c2)C1` (stereo partly drawn) [Compound 29, (3S)-3-{3-[(1S)-1-(naphthalene-2-carbonylamino)-2-methyl-propyl]-4,5-dihydro-isoxazole-5-carbonylamino}-4-keto-5-(2-naphthyloxy)-pentanoic acid], for which the EC50 in data set [2] (Homo sapiens) fell in the range of 1000 to 10000 nM.
`CC(=O)N[C@@H](CC(=O)O)C(=O)N[C@@H](CCC(=O)O)C(=O)N[C@H](C(=O)N[C@H](C=O)CC(=O)O)C(C)C` [Ac-DEVD-CHO, reference compound]: the viability ratio in data set [1] (Conc. 0.4 µM) was 12.16%; in data set [1] (Conc. 2 µM) it was 14.75%; in data set [1] (Conc. 10 µM) it was 19.16%; in data set [1] (Conc. 50 µM, 50 µM), 35.1% and 35.14%.
Consider `CC(C)[C@H](NC(=O)CCC(=O)O)C1=NOC(C)(C(=O)N[C@@H](CC(=O)O)C(=O)COc2ccccc2)C1` (mixture of isomers) [Compound 47, (3S)-3-{3-[2-methyl-(1S)-1-(succinoylamino)-propyl]-5-methyl-4,5-dihydro-isoxazole-5-carbonylamino}-4-keto-5-phenoxy-pentanoic acid], for which, in data set [2] (Homo sapiens), the EC50 fell in the range of 1000 to 10000 nM.
With `CC(C)[C@H](NC(=O)c1cccc2ccccc12)C1=NOC(C)(C(=O)N[C@@H](CC(=O)O)C(=O)COC(=O)c2c(Cl)cccc2Cl)C1` (stereo partly drawn) [Compound 68, (3S)-3-{3-[2-methyl-(1S)-1-(naphthalene-1-carbonylamino)-propyl]-5-methyl-4,5-dihydro-isoxazole-5-carbonylamino}-4-keto-5-(2,6-dichlorobenzoyloxy)-pen tanoic acid], in data set [2] (Homo sapiens), the EC50 lay in the range of 1000 to 10000 nM.
For the compound `CC(C)[C@H](NC(=O)c1c[nH]c2ccccc12)C1=NOC(Cc2ccccc2)(C(=O)N[C@@H](CC(=O)O)C(=O)COC(=O)c2c(Cl)cccc2Cl)C1` (stereo partly drawn) [Compound 66, (3S)-3-{3-[2-methyl-(1S)-1-(indole-3-carbonylamino)-propyl]-5-phenylmethyl - 4,5-dihydro-isoxazole-5-carbonylamino}-4-keto-5-(2,6-dichlorobenzoyloxy)-pe ntanoic acid], in data set [2] (Homo sapiens), the EC50 lay in the range of 1000 to 10000 nM.

Values taken from patent EP1212309B1, “CASPASE INHIBITOR” (LG Chem Investment, Ltd., priority 1999, dated 2001).
